The values below come from US8293917B2, “Pyrazole compounds as CCR1 antagonists” (Boehringer Ingelheim International GmbH, priority 2008, dated 2012).

One may read the IC50 as the midpoint of a concentration-inhibition curve.

This assay addresses T1, CCR1 (Homo sapiens, UniProt P32246).
T1 construct: host or cells: non-adherent cells
T1 sequence (P32246 1-355): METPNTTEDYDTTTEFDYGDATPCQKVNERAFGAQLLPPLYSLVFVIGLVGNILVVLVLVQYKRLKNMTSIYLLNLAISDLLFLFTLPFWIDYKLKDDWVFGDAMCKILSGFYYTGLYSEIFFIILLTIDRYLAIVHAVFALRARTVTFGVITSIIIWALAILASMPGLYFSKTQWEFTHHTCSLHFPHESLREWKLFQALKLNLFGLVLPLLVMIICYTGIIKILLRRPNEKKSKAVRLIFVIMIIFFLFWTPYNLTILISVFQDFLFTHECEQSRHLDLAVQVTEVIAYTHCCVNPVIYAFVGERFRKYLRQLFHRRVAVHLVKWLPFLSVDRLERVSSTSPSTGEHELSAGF
Put plainly: functional cellular assay measuring calcium flux in response to MIP1α in CCR1-transfected cells (Method A or Method B). The format is cell-based. As to conditions: cells stably expressing recombinant CCR1 and G-alpha-16; MIP-1alpha added at EC80; method (A: FLIPR TETRA, B: FDSS6000) not stated per compound. As for the experimental part: Compounds are assessed for the ability to block the interaction of CCR1 and its ligands in a functional cellular assay measuring calcium flux in response to MIP1α in CCR1-transfected cells.
Method A: Non-adherent cells purchased from Chemicon Corporation (HTS005C), stably expressing recombinant CCR1 and G-alpha-16 are grown in RPMI 1640 medium (Mediatech 10-080-CM) supplemented with 10% heat-inactivated FBS, 0.4 mg/mL Geneticin and penicillin/streptomycin. On the day of the assay, the cells are transferred to a beaker and dye-loaded in bulk using a Fluo-4 NW Calcium Assay Kit with probenecid (Invitrogen F36205) at 0.8E6 cells/mL for 1 hour at room temperature. After 1 hour, they are seeded in a 384-well tissue culture-treated plate at a density of 20,000 cells/well. Appropriately diluted test compound is added to the well to achieve a top concentration of 3,000 nM (diluted 3-fold with 10 doses total). The final concentration of DMSO is 1%. The buffer is HBSS (Invitrogen 14025) with 20 mM HEPES at pH 7.4. The cells are allowed to incubate 1 hour in the dark at room temperature. The plates are transferred to the FLIPR TETRA where MIP-1alpha in 1% BSA is added at the EC80 final concentration. Wells +/−MIP-1alpha containing diluted DMSO instead of compound serve as the controls. Intracellular calcium flux is recorded on the FLIPR TETRA, using excitation at 470/495 nm and emission at 515/575 nm. Data are analyzed using Activity Base software.
Method B: Non-adherent cells purchased from Chemicon Corporation (HTS005C), stably expressing recombinant CCR1 and G-alpha-16 are grown in RPMI 1640 medium (Mediatech 10-080-CM) supplemented with 10% FBS, 0.4 mg/mL Geneticin and penicillin/streptomycin. On the day of the assay, the cells are loaded with Calcium 4 dye (Molecular Devices R7448) with Probenecid (Invitrogen P346400) at 8E5 cells/mL for 1 hour at room temperature. After 1 hour, they are seeded in a 384-well tissue culture-treated plate at a density of 20,000 cells/well. Appropriately diluted test compound is added to the well to achieve a top concentration of 3,000 nM (diluted 4-fold with 10 doses total). The final concentration of DMSO is 1%. The buffer is HBSS (Invitrogen 14025) with 20 mM HEPES at pH 7.4. The cells incubate 30 minutes at 37 C and then 30 minutes at room temperature. The plates are transferred to the HAMAMATSU FDSS6000 where MIP-1alpha in 1% BSA is added at the EC80 final concentration. All plates must be read within 4 hours of the start of dye-loading. Wells +/−MIP-1alpha containing diluted DMSO instead of compound serve as the controls. Data are analyzed using Activity Base software.
For `CCC[C@H](NC(=O)c1cnn(-c2ccc(Cl)cc2)c1C)c1ccc(S(C)(=O)=O)nc1` (stereo in doubt) [1-(4-Chloro-phenyl)-5-methyl-1H-pyrazole-4-carboxylic acid [1-(6-methanesulfonyl-pyridin-3-yl)-butyl]-amide], the IC50 is 35 nM.
Under `Cc1c(C(=O)N[C@@H](C)c2cccc3ccccc23)cnn1-c1ccc(Cl)c(Cl)c1` [1-(3,4-Dichloro-phenyl)-5-methyl-1H-pyrazole-4-carboxylic acid ((S)-1-naphthalen-1-yl-ethyl)-amide] stands 54 nM; under `CCCC(NC(=O)c1cnn(-c2ccc(Cl)c(Cl)c2)c1C)c1ccnc(Br)c1` (stereo not shown) [1-(3,4-Dichloro-phenyl)-5-methyl-1H-pyrazole-4-carboxylic acid [1-(2-bromo-pyridin-4-yl)-butyl]-amide], 0.6 nM.
In the case of `CCCC(NC(=O)c1cnn(-c2ccc(Cl)c(Cl)c2)c1C)c1ccnc(S(C)(=O)=O)c1` (stereo not shown) [1-(3,4-Dichloro-phenyl)-5-methyl-1H-pyrazole-4-carboxylic acid [1-(2-methanesulfonyl-pyridin-4-yl)-butyl]-amide], the IC50 stood at 0.3 nM.
As for `CCCC(NC(=O)c1cnn(-c2ccc(Cl)c(Cl)c2)c1C)c1cncc(S(C)(=O)=O)c1` (stereo not shown) [1-(3,4-Dichloro-phenyl)-5-methyl-1H-pyrazole-4-carboxylic acid [1-(5-methanesulfonyl-pyridin-3-yl)-butyl]-amide], the figure is 1 nM.
Under `CCCC(NC(=O)c1cnn(-c2ccc(Cl)c(Cl)c2)c1C)c1ccc(S(C)(=O)=O)nc1` (stereo not shown) [1-(3,4-Dichloro-phenyl)-5-methyl-1H-pyrazole-4-carboxylic acid [1-(6-methanesulfonyl-pyridin-3-yl)-butyl]-amide] stands 5.3 nM; under `C=CCC[C@H](NC(=O)c1cnn(-c2ccc(Cl)c(Cl)c2)c1C)c1cccc(Br)c1` [1-(3,4-Dichloro-phenyl)-5-methyl-1H-pyrazole-4-carboxylic acid [(S)-1-(3-bromo-phenyl)-pent-4-enyl]-amide], 41 nM.
As for `CC[C@H](NC(=O)c1cnn(-c2ccc(Cl)c(Cl)c2)c1C)c1cccc(Br)c1` [1-(3,4-Dichloro-phenyl)-5-methyl-1H-pyrazole-4-carboxylic acid [(S)-1-(3-bromo-phenyl)-propyl]-amide], the figure is 16 nM; as for `Cc1c(C(=O)N[C@@H](C)c2ccc(F)c(C(F)(F)F)c2)cnn1-c1ccc(Cl)c(Cl)c1` [1-(3,4-Dichloro-phenyl)-5-methyl-1H-pyrazole-4-carboxylic acid [(S)-1-(4-fluoro-3-trifluoromethyl-phenyl)-ethyl]-amide], 28 nM.
As to `CCCC(NC(=O)c1cnn(-c2ccc(F)c(Cl)c2)c1C)c1cncc(S(C)(=O)=O)c1` (stereo not shown) [1-(3-Chloro-4-fluoro-phenyl)-5-methyl-1H-pyrazole-4-carboxylic acid [1-(5-methanesulfonyl-pyridin-3-yl)-butyl]-amide], the IC50 was determined as 5.9 nM.
Under `CCCC(NC(=O)c1cnn(-c2ccc(F)c(Cl)c2)c1C)c1ccc(S(C)(=O)=O)nc1` (stereo not shown) [1-(3-Chloro-4-fluoro-phenyl)-5-methyl-1H-pyrazole-4-carboxylic acid [1-(6-methanesulfonyl-pyridin-3-yl)-butyl]-amide] stands 71 nM; under `CCCC(NC(=O)c1cnn(-c2ccc(Br)cc2)c1C)c1cncc(S(C)(=O)=O)c1` (stereo not shown) [1-(4-Bromo-phenyl)-5-methyl-1H-pyrazole-4-carboxylic acid [1-(5-methanesulfonyl-pyridin-3-yl)-butyl]-amide], 9.3 nM.
Under `CCCC(NC(=O)c1cnn(-c2ccc(Cl)c(F)c2)c1C)c1cncc(S(C)(=O)=O)c1` (stereo not shown) [1-(4-Chloro-3-fluoro-phenyl)-5-methyl-1H-pyrazole-4-carboxylic acid [1-(5-methanesulfonyl-pyridin-3-yl)-butyl]-amide] stands 37 nM; under `CCCC(NC(=O)c1cnn(-c2ccc(Cl)c(F)c2)c1C)c1ccc(S(C)(=O)=O)nc1` (stereo not shown) [1-(4-Chloro-3-fluoro-phenyl)-5-methyl-1H-pyrazole-4-carboxylic acid [1-(6-methanesulfonyl-pyridin-3-yl)-butyl]-amide], 91 nM.
Under `CCC[C@H](NC(=O)c1cnn(-c2ccc(Cl)cc2)c1CO)c1cccc(Br)c1` [1-(4-Chloro-phenyl)-5-hydroxymethyl-1H-pyrazole-4-carboxylic acid [(S)-1-(3-bromo-phenyl)-butyl]-amide] stands 16 nM.
`CCC[C@H](NC(=O)c1cnn(-c2ccc(Cl)cc2)c1CO)c1cccc(C(F)(F)F)c1` [1-(4-Chloro-phenyl)-5-hydroxymethyl-1H-pyrazole-4-carboxylic acid [(S)-1-(3-trifluoromethyl-phenyl)-butyl]-amide]: the IC50 is 6.5 nM.
As to `CCCC(NC(=O)c1cnn(-c2ccc(Cl)cc2)c1C)c1ccnc(Br)c1` (stereo not shown) [1-(4-Chloro-phenyl)-5-methyl-1H-pyrazole-4-carboxylic acid [1-(2-bromo-pyridin-4-yl)-butyl]-amide], the IC50 was 1.1 nM.
Under `CCCC(NC(=O)c1cnn(-c2ccc(Cl)cc2)c1C)c1ccnc(S(=O)(=O)C2CC2)c1` (stereo not shown) [1-(4-Chloro-phenyl)-5-methyl-1H-pyrazole-4-carboxylic acid [1-(2-cyclopropanesulfonyl-pyridin-4-yl)-butyl]-amide] stands 12 nM; under `CCCC(NC(=O)c1cnn(-c2ccc(Cl)cc2)c1C)c1ccnc(S(=O)(=O)N(C)C)c1` (stereo not shown) [1-(4-Chloro-phenyl)-5-methyl-1H-pyrazole-4-carboxylic acid [1-(2-dimethylsulfamoyl-pyridin-4-yl)-butyl]-amide], 4.5 nM; under `CCCC(NC(=O)c1cnn(-c2ccc(Cl)cc2)c1C)c1ccnc(S(=O)(=O)CC)c1` (stereo not shown) [1-(4-Chloro-phenyl)-5-methyl-1H-pyrazole-4-carboxylic acid [1-(2-ethanesulfonyl-pyridin-4-yl)-butyl]-amide], 5.7 nM.
Under `CCCC(NC(=O)c1cnn(-c2ccc(Cl)cc2)c1C)c1ccnc(S(C)(=O)=O)c1` (stereo not shown) [1-(4-Chloro-phenyl)-5-methyl-1H-pyrazole-4-carboxylic acid [1-(2-methanesulfonyl-pyridin-4-yl)-butyl]-amide] stands 2.3 nM; under `CCCC(NC(=O)c1cnn(-c2ccc(Cl)cc2)c1C)c1ccnc(S(=O)(=O)NC)c1` (stereo not shown) [1-(4-Chloro-phenyl)-5-methyl-1H-pyrazole-4-carboxylic acid [1-(2-methylsulfamoyl-pyridin-4-yl)-butyl]-amide], 2.9 nM.
Under `CCCC(NC(=O)c1cnn(-c2ccc(Cl)cc2)c1C)c1ccnc(S(N)(=O)=O)c1` (stereo not shown) [1-(4-Chloro-phenyl)-5-methyl-1H-pyrazole-4-carboxylic acid [1-(2-sulfamoyl-pyridin-4-yl)-butyl]-amide] stands 51 nM; under `CCCC(NC(=O)c1cnn(-c2ccc(Cl)cc2)c1C)c1cncc(Br)c1` (stereo not shown) [1-(4-Chloro-phenyl)-5-methyl-1H-pyrazole-4-carboxylic acid [1-(5-bromo-pyridin-3-yl)-butyl]-amide], 4.1 nM; under `CCCC(NC(=O)c1cnn(-c2ccc(Cl)cc2)c1C)c1cncc(S(=O)(=O)C2CC2)c1` (stereo not shown) [1-(4-Chloro-phenyl)-5-methyl-1H-pyrazole-4-carboxylic acid [1-(5-cyclopropanesulfonyl-pyridin-3-yl)-butyl]-amide], 85 nM.
